Test results published in PMC4057667, “Study on Biopharmaceutics Classification and Oral Bioavailability of a Novel Multikinase Inhibitor NCE for Cancer Therapy” (International Journal of Molecular Sciences, 2014).

Columns and labels:
[1] = Solubility with sodium dodecyl sulfate (SDS) added; type: physicochemical; conditions: aqueous with cosolvent or surfactant or cyclodextrin
Procedure: Intrinsic dissolution ratio is defined as the dissolution rate of a pure drug substance under the condition of constant surface area, agitation or stirring speed, pH and ionic strength of the dissolution medium. As a rate characterization, IDR data has a good correlation with in vivo drug dissolution rate. […] Three different SDS concentrations were tested. The solubilities of NCE were 54.46 (0.4% SDS), 131.83 (1% SDS) and 255.91 (2% SDS) μg/mL. The volume of the release medium in this experiment was 900 mL, thus the introduction of 1% SDS into the medium was enough to achieve sink condition.
The concentration of NCE in perfusion buffer containing 0.4% SDS was high enough to conduct the following intestinal permeability study. Additionally, according to preliminary experiments, SDS with concentrations higher than 1% would be toxic to rats.

[2] = pKa determination; type: physicochemical; conditions: read-out: pKa of conjugate acid
[3] = 1-octanol/water partition coefficient, shake-flask method; type: physicochemical; conditions: 37 °C
Procedure: The partition coefficient (logP value) is related closely to drug’s absorption in vivo. Furthermore, it can help to get a better understanding of drug’s physicochemical properties. The 1-octanol/water partition coefficient of NCE was measured by a shake-flask method. Both the 1-octanol and aqueous buffer solution were saturated before performing the experiments. Solutions of about 3.3 mM NCE were prepared in aqueous 0.1 M HCl (pH = 1.0) solution and PBS buffer (pH = 6.8) solutions. Then, 1 mL of 1-octanol was added to 9 mL of the aqueous NCE solution in glass flasks. The mixtures were then stirred in a mechanical shaker for 6 h (37 °C). Samples were left in water baths and kept at the appropriate temperature (37 °C) for at least 72 h. After that, the concentrations in the aqueous phase and 1-octanol phase were determined by HPLC, respectively. The partition coefficients were calculated by the following equation. All the partitioning experiments were performed in at least triplicate.
(1) P1-octanol/water=lg (C1-octanol/Cwater)
where P1-octanol/water is the partition coefficient value; C1-octanol is the drug’s concentration in 1-octanol phase; Cwater is the drug’s concentration in aqueous solution.

[4] = Intrinsic dissolution rate (IDR) measurement; type: physicochemical; conditions: phosphate buffer pH 6.8 with 1% SDS, 37 °C, 75 rpm, initial 4 h
Procedure: A modified IDR measurement method was carried out. In brief, 50 mg NCE was compressed under an average compression force of 3.0 MPa for 1 min to make a non-disintegrating compact using a 5 mm die and punch. The surface area of the compact was 0.1963 cm^2. Compacts were placed in a molten beeswax-mold in a way that only one side could come in contact with the dissolution medium. Dissolution study was conducted employing USP II dissolution apparatus using 900 mL phosphate buffer (0.1 mol/mL, pH = 6.8) with 1% SDS (w/v) at 37 ± 1 °C. The paddle rotating speed was 75 rpm. Samples were collected every 30 min for a period of 8 h and analyzed by HPLC. Samples were tested in triplicates.
To evaluate the IDR of NCE, the cumulative amount dissolved per surface unit of the compact was plotted against time. The slope of the linear region (R^2 ≥ 0.95) was taken as the intrinsic dissolution rate. IDR was calculated by the following equation as described previously.
(2) IDR=(dw/dt)(1/S)=DCs/h
where IDR is the intrinsic dissolution rate (mg/min/cm^2); dw is the change in drug dissolved (mg); dt is the change in time (min); S is the surface area of the compact (cm^2); D is diffusion coefficient (cm^2/s); Cs is the solubility (mg/cm^3) and h is the stagnant layer thickness (cm).

[5] = Stability in perfusion buffers; type: physicochemical; conditions: for Detected concentration / Rate of change: perfusion buffer
Procedure: Storage conditions were investigated to guarantee the samples were stable before HPLC analysis. The stability of NCE was evaluated in the perfusion solution (pH 6.5). Four aliquots of the NCE solutions were stored at room temperature for 0, 2, 4 or 6 h, respectively. Another three were stored at 4 °C for 0, 24 or 48 h, respectively. All the samples were centrifuged at a rate of 1.3 × 10^4 rpm for 10 min and then measured by HPLC. The sample concentrations were compared.

[6] = Biopharmaceutics Classification System (BCS) classification; conditions: IDR below borderline value of 1 mg·min^−1·cm^−2
Description: Targeted small-molecular inhibitors are promising antitumor candidates compared to the traditional chemotherapy drugs due to their high efficiency and low toxicity. Their common formulations are oral preparations with good compliance. The essential parameters controlling oral drug absorption are the permeability of the drug through the gastrointestinal (GI) membrane and the drug solubility/dissolution in GI milieu. Biopharmaceutics Classification System (BCS) is a modern tool to characterize drug permeability and solubility/dissolution [4, 5]. […] By using BCS system, some drug-drug interactions could be prevented and the in vivo bioavailability testing of the immediate release dosage forms of class I and III drugs could be bypassed. Up till now, there is rare systemic report about specific classification method according to BCS, especially for a novel drug candidate.
According to the Food and Drug Administration (FDA) guidance for biowaiver request of immediate-release solid oral dosage forms, a drug substance is considered as high soluble when the highest dose strength is soluble in ≤250 mL of aqueous media over the pH range of 1.0–7.5 [7]. However, the choice of different dose has a great impact on the dose/solubility ratio and then affects the classification of drugs. […]

[7] = set-up: method as in ref 31 = [31]; 31. Yang Y. Fan C. Zhang J. He X. Yu Y. Fang D. He Y. Song X. Intestinal absorption characteristics and pharmacokinetics of the novel targeted small-molecular NCE in rats Chin. J. New Drugs 2013 21 25; conditions: rats; cited from earlier work
[8] = test system: vascular endothelial growth factor receptor 2 (VEGFR2); set-up: method as in PMID 21691074; conditions: at a concentration of 10 μM; cited from earlier work
[9] = test system: fibroblast growth factor receptor 2 (FGFR2); set-up: method as in PMID 21691074; conditions: at a concentration of 10 μM; cited from earlier work

## CNC(=O)c1cc(Oc2ccc(NC(=O)c3cccc(C(F)(F)F)c3)cc2)ccn1.Cc1ccc(S(=O)(=O)O)cc1.O [NCE, 2-methylcarbamoyl-4-{4-[3-(trifluoromethyl)benzamido]phenoxy} pyridinium 4-methylbenzenesulfonate monohydrate]
[1]; phosphate buffer with 0.4% SDS
  solubility: 54.5 µg/mL
[1]; phosphate buffer with 1% SDS
  solubility: 132 µg/mL
[1]; phosphate buffer with 2% SDS
  solubility: 256 µg/mL
[2]
  pKa: 2.86
[3]; 1-octanol / 0.1 M HCl solution (pH = 1.0)
  logP at 6 h: 3.1 ± 0.04
[3]; 1-octanol/PBS pH 6.8, pH 6.8, 1-octanol / PBS 6.8 solution
  logP at 6 h: 4.2 ± 0.07
[4]
  Intrinsic dissolution rate (IDR): 1 × 10^−4 mg·min^−1·cm^−2
[5]; 4 °C, 24 h
  Detected concentration: 19.16 µg/mL
  Rate of change: 3.38%
[5]; 4 °C, 48 h
  Detected concentration: 18.99 µg/mL
  Rate of change: 4.21%
[5]; 20 °C, 0 h
  Detected concentration: 19.83 µg/mL
[5]; 20 °C, 2 h
  Detected concentration: 19.66 µg/mL
  Rate of change: 0.86%
[5]; 20 °C, 4 h
  Detected concentration: 19.49 µg/mL
  Rate of change: 1.70%
[5]; 20 °C, 6 h
  Detected concentration: 19.32 µg/mL
  Rate of change: 2.55%
[5]; perfusion buffers, up to 6 h at room temperature or 48 h at 4 °C
  concentration variation rates, all samples in stability study: less than 5%
[6]
  solubility class: low solubility
[7]
  absolute oral bioavailability: 44.18%
[8]
  inhibition rate: 97%
[9]
  inhibition rate: 65%
